Source: patent publication US20240299387A1, “HETEROCYCLIC EGFR INHIBITORS FOR USE IN THE TREATMENT OF CANCER” (Blueprint Medicines Corporation, priority 2021, published 2024)
Like-named read-outs stand apart in the source and are kept apart here.

Tests used:
[1] = test system: EGFR mutant NSCLC (EGFR M+); details: NSCLC patients; average treatment time to resistance; cited from earlier work
[2] = biological target: T1, EGFR L858R T790M in NCI-H1975 cell line (Homo sapiens, UniProt P00533, L858R/T790M); assay: NCI-H1975 pEGFR AlphaLISA assay; format: cell-based; details: NCI-H1975 cells (EGFR L858R T790M), p-EGFR (Tyr1068), 4-5 hours incubation; read-out: Ext pEGFR H1975 GMean IC50 (nM) Protocol: @Pharmaron AlphaLISA (Num)
T1 construct: host or cells: NCI-H1975
Procedure, shortened: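 Phospho-EGFR measured by AlphaLISA after overnight donor-bead incubation; IC50 from percent pEGFR inhibition versus log concentration.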

EGFR (L858R T790M C797S) = biological target: T2, EGFR (L858R T790M C797S) (Homo sapiens, UniProt P00533, C797S/L858R/T790M); assay: Biochemical EGFR inhibition assay (Caliper mobility shift), EGFR LRTMCS mutant
T2 construct: purchased SignalChem E10-122VG
Procedure, shortened: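 Apparent IC50s were derived by plotting percent activity against the log of compound concentration. Activity was measured as phosphopeptide electrophoretically separated from substrate, after reactions at room temperature reached 10% to 20% phosphorylation and were halted with 35 mM EDTA.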

[3] = LRTMCS (PH) IC50 (nM) @ 1 mM ATP (Num)

T2 sequence (P00533 25-1210 T790M/C797S/L858R): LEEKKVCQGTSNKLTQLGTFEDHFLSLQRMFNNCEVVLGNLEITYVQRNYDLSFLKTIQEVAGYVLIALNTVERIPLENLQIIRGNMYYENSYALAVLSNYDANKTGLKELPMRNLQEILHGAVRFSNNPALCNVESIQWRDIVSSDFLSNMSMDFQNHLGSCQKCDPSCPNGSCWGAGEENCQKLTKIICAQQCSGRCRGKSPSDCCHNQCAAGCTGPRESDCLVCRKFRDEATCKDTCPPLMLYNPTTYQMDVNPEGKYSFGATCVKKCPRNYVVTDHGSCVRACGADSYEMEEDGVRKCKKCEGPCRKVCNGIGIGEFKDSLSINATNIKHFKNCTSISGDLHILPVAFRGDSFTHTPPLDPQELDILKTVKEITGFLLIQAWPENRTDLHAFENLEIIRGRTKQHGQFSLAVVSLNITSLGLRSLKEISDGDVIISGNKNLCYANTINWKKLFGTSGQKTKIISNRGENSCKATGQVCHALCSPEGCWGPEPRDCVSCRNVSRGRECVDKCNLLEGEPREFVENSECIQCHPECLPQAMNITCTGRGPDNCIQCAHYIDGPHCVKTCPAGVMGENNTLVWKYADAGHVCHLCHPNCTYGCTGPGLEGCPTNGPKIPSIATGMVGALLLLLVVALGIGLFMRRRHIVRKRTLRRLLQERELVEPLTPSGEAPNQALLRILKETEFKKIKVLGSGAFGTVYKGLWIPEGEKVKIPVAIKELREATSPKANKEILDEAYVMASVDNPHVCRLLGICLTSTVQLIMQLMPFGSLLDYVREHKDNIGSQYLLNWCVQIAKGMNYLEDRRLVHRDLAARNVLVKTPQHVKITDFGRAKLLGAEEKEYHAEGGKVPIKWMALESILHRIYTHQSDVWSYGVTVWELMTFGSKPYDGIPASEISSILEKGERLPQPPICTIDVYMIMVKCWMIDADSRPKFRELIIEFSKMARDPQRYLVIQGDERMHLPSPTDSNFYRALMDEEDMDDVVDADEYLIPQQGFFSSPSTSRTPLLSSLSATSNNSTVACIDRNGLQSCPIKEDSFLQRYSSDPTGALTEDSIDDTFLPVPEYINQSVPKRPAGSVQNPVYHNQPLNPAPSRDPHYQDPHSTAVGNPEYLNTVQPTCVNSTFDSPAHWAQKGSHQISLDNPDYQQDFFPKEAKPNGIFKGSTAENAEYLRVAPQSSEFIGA
T1 sequence (P00533 25-1210 T790M/L858R): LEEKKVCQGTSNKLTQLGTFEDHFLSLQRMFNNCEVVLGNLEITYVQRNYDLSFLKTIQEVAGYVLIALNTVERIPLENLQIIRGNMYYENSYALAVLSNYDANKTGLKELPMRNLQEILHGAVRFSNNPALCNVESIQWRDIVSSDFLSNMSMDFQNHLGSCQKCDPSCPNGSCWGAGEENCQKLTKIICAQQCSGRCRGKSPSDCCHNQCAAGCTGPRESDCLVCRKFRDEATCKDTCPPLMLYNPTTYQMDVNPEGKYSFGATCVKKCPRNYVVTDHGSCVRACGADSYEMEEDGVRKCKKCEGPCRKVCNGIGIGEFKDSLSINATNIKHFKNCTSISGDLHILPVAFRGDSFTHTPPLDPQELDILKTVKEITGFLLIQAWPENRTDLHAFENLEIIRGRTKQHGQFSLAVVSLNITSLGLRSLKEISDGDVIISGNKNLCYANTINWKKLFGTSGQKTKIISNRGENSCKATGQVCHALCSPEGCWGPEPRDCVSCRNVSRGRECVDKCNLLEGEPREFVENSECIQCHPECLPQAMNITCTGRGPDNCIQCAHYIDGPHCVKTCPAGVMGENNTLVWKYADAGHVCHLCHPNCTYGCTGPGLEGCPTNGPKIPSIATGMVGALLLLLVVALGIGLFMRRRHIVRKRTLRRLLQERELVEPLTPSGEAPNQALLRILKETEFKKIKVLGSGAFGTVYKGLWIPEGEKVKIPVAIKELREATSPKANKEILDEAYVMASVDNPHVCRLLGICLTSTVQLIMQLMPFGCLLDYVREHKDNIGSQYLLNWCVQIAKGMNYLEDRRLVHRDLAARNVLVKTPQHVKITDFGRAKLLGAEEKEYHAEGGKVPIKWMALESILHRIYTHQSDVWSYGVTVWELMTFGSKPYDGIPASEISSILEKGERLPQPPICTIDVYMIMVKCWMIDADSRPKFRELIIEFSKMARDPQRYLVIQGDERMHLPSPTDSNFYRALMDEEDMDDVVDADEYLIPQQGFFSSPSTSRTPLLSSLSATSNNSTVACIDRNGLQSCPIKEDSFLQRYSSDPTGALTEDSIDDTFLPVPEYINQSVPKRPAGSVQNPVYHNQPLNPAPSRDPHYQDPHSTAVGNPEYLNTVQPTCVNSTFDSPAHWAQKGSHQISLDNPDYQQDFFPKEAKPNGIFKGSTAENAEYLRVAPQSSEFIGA

Row | SMILES | IC50 [2] | IC50 (EGFR (L858R T790M C797S); [3]) | IC50 (EGFR (L858R T790M C797S); read-out: LRTMCS (PH) IC50 (nM) @ 1 mM ATP (Num)) | time of treatment until resistance is observed [1]
1 | C=CC(=O)Nc1cc(Nc2nccc(-c3cn(C)c4ccccc34)n2)c(OC)cc1N(C)CCN(C)C [osimertinib] | – | – | – | approximately 10 months
2 | CC(C)c1ccc(OCC2CCc3cncn32)c2cnc(Nc3ccnc(N4CCC(C)(O)CC4)n3)cc12 (stereo not drawn) [Example 18, 1-(4-((8-((6,7-dihydro-5Hpyrrolo[1,2-c]imidazol-5-yl)methoxy)-5-isopropylisoquinolin-3-yl)amino)pyrimidin-2-yl)-4-methylpiperidin-4-ol] | 20 to 30 nM | < 15 nM | – | –
3 | CC(C)c1ccc(OCCn2cnnc2)c2cnc(Nc3ccnc(N4CC[C@H]5COC[C@H]54)n3)cc12 (single isomer, unassigned) [Example 51] | > 50 nM | – | 20 to 30 nM | –
4 | CC(=O)N1CC(COc2cccc3cc(Nc4ccnc(N5C[C@@H](F)[C@@H](O)C(C)(C)C5)n4)ncc23)C1 (single isomer, unassigned) [Example 42, 1-(3-(((3-((2-((4S,5R)-5-fluoro-4-hydroxy-3,3-dimethylpiperidin-1-yl)pyrimidin-4-yl)amino)isoquinolin-8-yl)oxy)methyl)azetidin-1-yl)ethenone or 1-(3-(((3-((2-((4R,5S)-5-fluoro-4-hydroxy-3,3-dimethylpiperidin-1-yl)pyrimidin-4-yl)amino)isoquinolin-8-yl)oxy)methyl)azetidin-1-yl)ethenone] | > 50 nM | 20 to 30 nM | – | –
5 | CC(C)c1ccc(OCc2cn(C)nn2)c2cnc(Nc3ccnc(N4CC[C@@H](O)[C@@](C)(F)C4)n3)cc12 [Example 10, (3S,4R)-3-fluoro-1-(4-((5-isopropyl-8-((1-methyl-1H-1,2,3-triazol-4-yl)methoxy)isoquinolin-3-yl)amino)pyrimidin-2-yl)-3-methylpiperidin-4-ol] | 30 to 50 nM | < 15 nM | – | –
6 | [2H]C([2H])([2H])O[C@H]1CCN(c2nccc(Nc3cc4c(C(C)C)ccc(OCCn5cnnc5)c4cn3)n2)C[C@H]1F [Example 44, 8-(2-(4H-1,2,4-triazol-4-yl)ethoxy)-N-(2-((3R,4S)-3-fluoro-4-(methoxy-d3)piperidin-1-yl)pyrimidin-4-yl)-5-isopropylisoquinolin-3-amine] | > 50 nM | 15 to 20 nM | – | –
7 | CO[C@@H]1CCN(c2nccc(Nc3cc4c(C(C)C)ncc(OCCn5cnnc5)c4cn3)n2)C[C@@H]1F [Example 55, 8-(2-(4H-1,2,4-triazol-4-yl)ethoxy)-N-(2-((3S,4R)-3-fluoro-4-methoxypiperidin-1-yl)pyrimidin-4-yl)-5-isopropyl-2,6-naphthyridin-3-amine] | > 50 nM | 15 to 20 nM | – | –
8 | [2H]C([2H])([2H])O[C@H]1CCN(c2nccc(Nc3cc4c(C(C)C)ccc(OC[C@H]5CCC(=O)N5C)c4cn3)n2)C[C@H]1F [Example 46, (R)-5-(((3-((2-((3R,4S)-3-fluoro-4-(methoxy-d3)piperidin-1-yl)pyrimidin-4-yl)amino)-5-isopropylisoquinolin-8-yl)oxy)methyl)-1-methylpyrrolidin-2-one] | > 50 nM | 15 to 20 nM | – | –
9 | CC(C)c1cnc(C(=O)NC2COC2)c2cnc(Nc3ccnc(N4CC[C@@H](O)[C@@](C)(F)C4)n3)cc12 [Example 60, 6-((2-((3S,4R)-3-fluoro-4-hydroxy-3-methylpiperidin-1-yl)pyrimidin-4-yl)amino)-4-isopropyl-N-(oxetan-3-yl)-2,7-naphthyridine-1-carboxamide] | 30 to 50 nM | 15 to 20 nM | – | –

The next lines start with results.

Row | IC50 [2] | IC50 (EGFR (L858R T790M C797S); [3]) | IC50 (EGFR (L858R T790M C797S); read-out: LRTMCS (PH) IC50 (nM) @ 1 mM ATP (Num)) | SMILES | time of treatment until resistance is observed [1]
10 | 20 to 30 nM | < 15 nM | – | CO[C@H]1C[C@H](NC(=O)c2ncc(C(C)C)c3cc(Nc4ccnc(N5CC[C@@H](O)[C@@](C)(F)C5)n4)ncc23)C1 [Example 74, 6-((2-((3S,4R)-3-fluoro-4-hydroxy-3-methylpiperidin-1-yl)pyrimidin-4-yl)amino)-4-isopropyl-N-((1r,3r)-3-methoxycyclobutyl)-2,7-naphthyridine-1-carboxamide] | –
11 | 20 to 30 nM | < 15 nM | – | CNc1ccc(C(C)C)c2cc(Nc3ccnc(N4CC[C@@H](O)[C@@](C)(F)C4)n3)ncc12 [Example 91, (3S,4R)-3-fluoro-1-(4-((5-isopropyl-8-(methylamino)isoquinolin-3-yl)amino)pyrimidin-2-yl)-3-methylpiperidin-4-ol] | –
12 | 30 to 50 nM | 15 to 20 nM | – | CC(C)c1cnc(C(=O)NC2CCOCC2)c2cnc(Nc3ccnc(N4CC[C@@H](O)[C@@](C)(F)C4)n3)cc12 [Example 78, 6-((2-((3S,4R)-3-fluoro-4-hydroxy-3-methylpiperidin-1-yl)pyrimidin-4-yl)amino)-4-isopropyl-N-(tetrahydro-2H-pyran-4-yl)-2,7-naphthyridine-1-carboxamide] | –
13 | 20 to 30 nM | < 15 nM | – | CCO[C@H]1C[C@H](NC(=O)c2ncc(C(C)C)c3cc(Nc4ccnc(N5CC[C@@H](O)[C@@](C)(F)C5)n4)ncc23)C1 [Example 84, N-((1r,3r)-3-ethoxycyclobutyl)-6-((2-((3S,4R)-3-fluoro-4-hydroxy-3-methylpiperidin-1-yl)pyrimidin-4-yl)amino)-4-isopropyl-2,7-naphthyridine-1-carboxamide] | –
14 | 20 to 30 nM | < 15 nM | – | CO[C@H]1C[C@@H](NC(=O)c2ncc(C(C)C)c3cc(Nc4ccnc(N5CC[C@@H](O)[C@@](C)(F)C5)n4)ncc23)C1 [Example 73, 6-((2-((3S,4R)-3-fluoro-4-hydroxy-3-methylpiperidin-1-yl)pyrimidin-4-yl)amino)-4-isopropyl-N-((1s,3s)-3-methoxycyclobutyl)-2,7-naphthyridine-1-carboxamide] | –
